Source: patent publication US20130157954A1, “METHODS FOR TREATMENT OR PROPHYLAXIS OF KIDNEY OR LIVER DYSFUNCTION” (NPS PHARMACEUTICALS, INC., priority 2010, published 2013)

Assay: Example 1: liver biomarkers (total bilirubin, ALT, AST, ALP) in short bowel syndrome patients, every four weeks for 24 weeks; also sorted by >5% change from baseline
Format: in vivo, Human
Set-up: AST (SGOT) Change from Baseline Median / ALT (SGPT) Median / TOTAL BILIRUBIN Median / TOTAL BILIRUBIN Change from Baseline Median / ALT (SGPT) Change from Baseline Median / AST (SGOT) Median: unit not given here
Settings: for AST (SGOT) Change from Baseline Median / AST (SGOT) Median / TOTAL BILIRUBIN Change from Baseline Median / TOTAL BILIRUBIN Median / ALKALINE PHOSPHATASE Change from Baseline Median / ALT (SGPT) Change from Baseline Median / ALT (SGPT) Median: 0.10 mg/kg/day; for ALKALINE PHOSPHATASE change from baseline <−5%, number of patients / ALKALINE PHOSPHATASE change from baseline <−5%, percent of patients / ALKALINE PHOSPHATASE change from baseline >5%, number of patients / ALKALINE PHOSPHATASE change from baseline >5%, percent of patients / ALKALINE PHOSPHATASE change from baseline −5% <= and <=5%, number of patients / ALKALINE PHOSPHATASE change from baseline −5% <= and <=5%, percent of patients / ALT (SGPT) change from baseline <−5%, number of patients / ALT (SGPT) change from baseline <−5%, percent of patients / ALT (SGPT) change from baseline >5%, number of patients / ALT (SGPT) change from baseline >5%, percent of patients / ALT (SGPT) change from baseline −5% <= and <=5%, number of patients / ALT (SGPT) change from baseline −5% <= and <=5%, percent of patients / AST (SGOT) change from baseline <−5%, number of patients / AST (SGOT) change from baseline <−5%, percent of patients / AST (SGOT) change from baseline >5%, number of patients / AST (SGOT) change from baseline >5%, percent of patients / AST (SGOT) change from baseline −5% <= and <=5%, number of patients / AST (SGOT) change from baseline −5% <= and <=5%, percent of patients / TOTAL BILIRUBIN change from baseline <−5%, number of patients / TOTAL BILIRUBIN change from baseline <−5%, percent of patients / TOTAL BILIRUBIN change from baseline >5%, number of patients / TOTAL BILIRUBIN change from baseline >5%, percent of patients / TOTAL BILIRUBIN change from baseline −5% <= and <=5%, number of patients / TOTAL BILIRUBIN change from baseline −5% <= and <=5%, percent of patients: 0.1 mg/kg/day
Procedure: Human patients with short bowel syndrome were divided into three groups: a control group (16 total individuals) to receive placebo, an experimental group (35 total individuals) to receive teduglutide at 0.05 mg/kg/day throughout the study, and an experimental group (32 total individuals) to receive teduglutide at 0.1 mg/kg/day throughout the study. Patients were treated by subcutaneous injection of placebo or the appropriate dose of teduglutide. As individuals with short bowel syndrome are likely to experience associated liver and kidney disease, known biomarkers of liver and kidney function were monitored every four weeks, for 24 weeks. The liver biomarkers tested included total bilirubin, ALT and AST and ALP. The kidney biomarkers tested included urea nitrogen, creatinine and GFR. Before administration of placebo or teduglutide, diagnostic biomarker levels were tested to establish a baseline for each individual.
To visualize the effect of GLP-2 on the levels of the diagnostic biomarkers, the average change from baseline was calculated for the placebo and teduglutide treated groups for each visit after a baseline was established. The average change from baseline of each group is depicted in FIGS. 1-7. The numerical figures for each diagnostic biomarker at each time point are depicted in Table 1.
The efficacy of teduglutide in treating liver dysfunction was further tested by sorting the data into two groups: individuals with abnormal baseline values of liver diagnostic biomarkers; and individuals with normal baseline values of liver diagnostic biomarkers. The mean diagnostic biomarker change from baseline for these two groups is shown for ALT (FIGS. 5 and 6) and AST (FIGS. 7 and 8). […] These changes were significant when compared to baseline levels for the group, and when compared to placebo (see FIGS. 5 and 7).
The raw data for this sorting is reproduced in Table 2 below.

CC[C@H](C)[C@H](NC(=O)[C@H](Cc1ccccc1)NC(=O)[C@H](CC(=O)O)NC(=O)[C@H](CCCNC(=N)N)NC(=O)[C@H](C)NC(=O)[C@H](C)NC(=O)[C@H](CC(C)C)NC(=O)[C@H](CC(N)=O)NC(=O)[C@H](CC(=O)O)NC(=O)[C@H](CC(C)C)NC(=O)[C@@H](NC(=O)[C@@H](NC(=O)[C@H](CC(N)=O)NC(=O)[C@H](CCSC)NC(=O)[C@H](CCC(=O)O)NC(=O)[C@H](CC(=O)O)NC(=O)[C@H](CO)NC(=O)[C@H](Cc1ccccc1)NC(=O)[C@H](CO)NC(=O)CNC(=O)[C@H](CC(=O)O)NC(=O)CNC(=O)[C@@H](N)Cc1c[nH]cn1)[C@@H](C)O)[C@@H](C)CC)C(=O)N[C@@H](CC(N)=O)C(=O)N[C@@H](Cc1c[nH]c2ccccc12)C(=O)N[C@@H](CC(C)C)C(=O)N[C@H](C(=O)N[C@@H](CCC(N)=O)C(=O)N[C@H](C(=O)N[C@@H](CCCCN)C(=O)N[C@H](C(=O)N[C@H](C(=O)N[C@@H](CC(=O)O)C(=O)O)[C@@H](C)O)[C@@H](C)CC)[C@@H](C)O)[C@@H](C)CC [teduglutide]
AST (SGOT) Change from Baseline Median (DW4): −5.0 | AST (SGOT) Median (DW4): 28.0 | TOTAL BILIRUBIN Change from Baseline Median (DW4): −1.0 | TOTAL BILIRUBIN Median (DW4): 7.0 | ALKALINE PHOSPHATASE Change from Baseline Median (DW8): −20.0 | ALT (SGPT) Change from Baseline Median (DW8): −8.0 | AST (SGOT) Change from Baseline Median (DW8): −5.0 | AST (SGOT) Median (DW8): 28.0 | TOTAL BILIRUBIN Change from Baseline Median (DW8): −1.0 | TOTAL BILIRUBIN Median (DW8): 7.0 | ALT (SGPT) Change from Baseline Median (DW12): −11.0 | ALT (SGPT) Median (DW12): 35.0 | AST (SGOT) Change from Baseline Median (DW12): −3.5 | TOTAL BILIRUBIN Change from Baseline Median (DW12): 0.0 | TOTAL BILIRUBIN Median (DW12): 7.0 | ALT (SGPT) Change from Baseline Median (DW16): −10.0 | ALT (SGPT) Median (DW16): 30.0 | AST (SGOT) Change from Baseline Median (DW16): −4.0 | AST (SGOT) Median (DW16): 30.0 | TOTAL BILIRUBIN Change from Baseline Median (DW16): −0.5 | TOTAL BILIRUBIN Median (DW16): 7.5 | ALKALINE PHOSPHATASE Change from Baseline Median (DW20): −23.0 | ALT (SGPT) Change from Baseline Median (DW20): −9.0 | ALT (SGPT) Median (DW20): 29.0 | AST (SGOT) Change from Baseline Median (DW20): −2.5 | AST (SGOT) Median (DW20): 30.0 | TOTAL BILIRUBIN Change from Baseline Median (DW20): 0.0 | TOTAL BILIRUBIN Median (DW20): 7.0 | ALKALINE PHOSPHATASE Change from Baseline Median (DW 24): −21.0 | ALT (SGPT) Change from Baseline Median (DW 24): −4.0 | ALT (SGPT) Median (DW 24): 37.0 | AST (SGOT) Change from Baseline Median (DW 24): −3.0 | AST (SGOT) Median (DW 24): 32.0 | TOTAL BILIRUBIN Change from Baseline Median (DW 24): 0.0 | TOTAL BILIRUBIN Median (DW 24): 9.0 | ALKALINE PHOSPHATASE change from baseline <−5%, number of patients (week 4): 17 | ALKALINE PHOSPHATASE change from baseline <−5%, percent of patients (week 4): (53.1%) | ALKALINE PHOSPHATASE change from baseline >5%, number of patients (week 4): 11 | ALKALINE PHOSPHATASE change from baseline >5%, percent of patients (week 4): (34.4%) | ALKALINE PHOSPHATASE change from baseline −5% <= and <=5%, number of patients (week 4): 4 | ALKALINE PHOSPHATASE change from baseline −5% <= and <=5%, percent of patients (week 4): (12.5%) | ALT (SGPT) change from baseline <−5%, number of patients (week 4): 20 | ALT (SGPT) change from baseline <−5%, percent of patients (week 4): (62.5%) | ALT (SGPT) change from baseline >5%, number of patients (week 4): 10 | ALT (SGPT) change from baseline >5%, percent of patients (week 4): (31.3%) | ALT (SGPT) change from baseline −5% <= and <=5%, number of patients (week 4): 2 | ALT (SGPT) change from baseline −5% <= and <=5%, percent of patients (week 4): (6.3%) | AST (SGOT) change from baseline <−5%, number of patients (week 4): 17 | AST (SGOT) change from baseline <−5%, percent of patients (week 4): (53.1%) | AST (SGOT) change from baseline >5%, number of patients (week 4): 10 | AST (SGOT) change from baseline >5%, percent of patients (week 4): (31.3%) | AST (SGOT) change from baseline −5% <= and <=5%, number of patients (week 4): 4 | AST (SGOT) change from baseline −5% <= and <=5%, percent of patients (week 4): (12.5%) | TOTAL BILIRUBIN change from baseline <−5%, number of patients (week 4): 16 | TOTAL BILIRUBIN change from baseline <−5%, percent of patients (week 4): (50.0%) | TOTAL BILIRUBIN change from baseline >5%, number of patients (week 4): 12 | TOTAL BILIRUBIN change from baseline >5%, percent of patients (week 4): (37.5%) | TOTAL BILIRUBIN change from baseline −5% <= and <=5%, number of patients (week 4): 3 | TOTAL BILIRUBIN change from baseline −5% <= and <=5%, percent of patients (week 4): (9.4%) | ALKALINE PHOSPHATASE change from baseline <−5%, number of patients (week 8): 24 | ALKALINE PHOSPHATASE change from baseline <−5%, percent of patients (week 8): (75.0%) | ALKALINE PHOSPHATASE change from baseline >5%, number of patients (week 8): 5 | ALKALINE PHOSPHATASE change from baseline >5%, percent of patients (week 8): (15.6%) | ALKALINE PHOSPHATASE change from baseline −5% <= and <=5%, number of patients (week 8): 2 | ALKALINE PHOSPHATASE change from baseline −5% <= and <=5%, percent of patients (week 8): (6.3%) | ALT (SGPT) change from baseline <−5%, number of patients (week 8): 20 | ALT (SGPT) change from baseline <−5%, percent of patients (week 8): (62.5%) | ALT (SGPT) change from baseline >5%, number of patients (week 8): 8 | ALT (SGPT) change from baseline >5%, percent of patients (week 8): (25.0%) | ALT (SGPT) change from baseline −5% <= and <=5%, number of patients (week 8): 2 | ALT (SGPT) change from baseline −5% <= and <=5%, percent of patients (week 8): (6.3%) | AST (SGOT) change from baseline <−5%, number of patients (week 8): 21 | AST (SGOT) change from baseline <−5%, percent of patients (week 8): (65.6%) | AST (SGOT) change from baseline >5%, number of patients (week 8): 5 | AST (SGOT) change from baseline >5%, percent of patients (week 8): (15.6%) | AST (SGOT) change from baseline −5% <= and <=5%, number of patients (week 8): 4 | AST (SGOT) change from baseline −5% <= and <=5%, percent of patients (week 8): (12.5%) | TOTAL BILIRUBIN change from baseline <−5%, number of patients (week 8): 16 | TOTAL BILIRUBIN change from baseline <−5%, percent of patients (week 8): (50.0%) | TOTAL BILIRUBIN change from baseline >5%, number of patients (week 8): 7 | TOTAL BILIRUBIN change from baseline >5%, percent of patients (week 8): (21.9%) | TOTAL BILIRUBIN change from baseline −5% <= and <=5%, number of patients (week 8): 6 | TOTAL BILIRUBIN change from baseline −5% <= and <=5%, percent of patients (week 8): (18.8%) | ALKALINE PHOSPHATASE change from baseline <−5%, number of patients (week 12): 19 | ALKALINE PHOSPHATASE change from baseline <−5%, percent of patients (week 12): (59.4%) | ALKALINE PHOSPHATASE change from baseline >5%, number of patients (week 12): 10 | ALKALINE PHOSPHATASE change from baseline >5%, percent of patients (week 12): (31.3%) | ALKALINE PHOSPHATASE change from baseline −5% <= and <=5%, number of patients (week 12): 1 | ALKALINE PHOSPHATASE change from baseline −5% <= and <=5%, percent of patients (week 12): (3.1%) | ALT (SGPT) change from baseline <−5%, number of patients (week 12): 20 | ALT (SGPT) change from baseline <−5%, percent of patients (week 12): (62.5%) | ALT (SGPT) change from baseline >5%, number of patients (week 12): 7
